Experimental data published in patent US9920030B2 (priority 2006, dated 2018).

Tests used:
[1] = system: Plasmopara vilicola (the causal agent of grape downy mildew); test: Test A: grape downy mildew, test suspension sprayed on grape seedlings after inoculation, visual disease rating; assay type: in vivo
Outline: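 Compounds dissolved in acetone (3% of final volume), suspended in 50/50 acetone/water with 250 ppm Trem 014; 200 ppm to run-off equals 500 g/ha. Seedlings inoculated, held saturated at 20 °C 24 h, then sprayed; 5 days at 20 °C, 24 h saturated, then visual rating, 0–100% control versus untreated.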

[2] = system: Phytophthora infestans (the causal agent of tomato late blight); test: whole plant or invertebrate; assay type: in vivo
[3] = system: Phytophthora infestans (the causal agent of tomato late blight); test: whole plant or invertebrate; assay type: in vivo; remark: listed apart in the source
[4] = compounds without asterisk (application rate not given), 100 = 100% disease control, 0 = no control relative to the controls

Compound	Percent Disease Control, Test A ([1]; * tested at 40 ppm) [%]	Percent Disease Control, Test B ([2]; * tested at 40 ppm) [%]	Percent Disease Control, Test C ([3]; * tested at 40 ppm) [%]	also measured
Cc1cc(C(F)(F)F)nn1CC(=O)N1CCC(c2nc(C3=NOC(C)(c4ccccc4)C3)cs2)CC1 (centres unmarked) [Compound 15, 1-[4-[4-(4,5-dihydro-5-methyl-5-phenyl-3-isoxazolyl)-2-thiazolyl]-1-piperidinyl]-2-[5-methyl-3-(trifluoromethyl)-1H-pyrazol-1-yl]ethanone]				melting point: 97 to 100 °C
Cc1cc(C(F)(F)F)nn1CC(=O)N1CCC(c2nc(C3=NOC4c5ccccc5CCC34)cs2)CC1 (centres unmarked) [Compound 16, 2-[5-methyl-3-(trifluoromethyl)-1H-pyrazol-1-yl]-1-[4-[4-(3a,4,5,9b-tetrahydronaphth[2,1-d]isoxazol-3-yl)-2-thiazolyl]-1-piperidinyl]ethanone]				melting point: 162 to 165 °C
Cc1cc(C(F)(F)F)nn1CC(=O)N1CCC(c2nc(C3=NOC(N4C(=O)N(C)C(C)(C)C4=O)C3)cs2)CC1 (centres unmarked) [Compound 235]	99	100	100	
Cc1cc(C(F)(F)F)nn1CC(=O)N1CCC(c2nc(C3=NOC(N4C(=O)c5ccccc5S4(=O)=O)C3)cs2)CC1 (centres unmarked) [Compound 236]	100	100	100	
CCOC(=O)c1cc(C)nn1CC(=O)N1CCC(c2nc(C3=NOC(c4ccccc4)C3)cs2)CC1 (centres unmarked) [Compound 238]	100	100	100	
CCOc1cc(C(F)(F)F)nn1CC(=O)N1CCC(c2nc(C3=NOC(c4ccccc4)C3)cs2)CC1 (centres unmarked) [Compound 241]	100	100	100	
Cc1cc(C(F)(F)F)nn1CC(=O)N1CCC(c2nc(N3CC(c4ccccc4)OC3=O)cs2)CC1 (centres unmarked) [Compound 242]	99	100	85	
Cc1cc(C(F)(F)F)nn1CC(=O)N1CCC(c2nc(C3=NOC(N4C(=O)CCCC4=O)C3)cs2)CC1 (centres unmarked) [Compound 243]				Percent Disease Control, Test A ([1]; ** tested at l0 ppm): 99%; Percent Disease Control, Test B ([2]; ** tested at l0 ppm): 100%; Percent Disease Control, Test C ([3]; ** tested at l0 ppm): 100%
Cc1cc(C(F)(F)F)nn1CC(=O)N1CCC(c2nc(C3=NOC(n4oc(=O)n(C(C)C)c4=O)C3)cs2)CC1 (centres unmarked) [Compound 244]	98	100	99	
Cc1cc(C(F)(F)F)nn1CC(=O)N1CCC(c2nc(-c3ccc(F)cc3)cs2)CC1 [Compound 245]	99	74	0	
Cc1cc(C(F)(F)F)nn1CC(=O)N1CCC(c2nc(-c3ccc(C(C)(C)C)cc3)cs2)CC1 [Compound 246]	99	79	40	
Cc1cc(C(F)(F)F)nn1CC(=O)N1CCC(c2nc(-c3ccc(C#N)cc3)cs2)CC1 [Compound 247]	99	100	88	
Cc1cc(C(F)(F)F)nn1CC(=O)N1CCC(c2nc(-c3ccc([N+](=O)[O-])cc3)cs2)CC1 [Compound 248]	90	73	26	
Cc1cc(C(F)(F)F)nn1CC(=O)N1CCC(c2nc(-c3ccc(Br)cc3)cs2)CC1 [Compound 249]	99	64	0	
Cc1cc(C(F)(F)F)nn1CC(=O)N1CCC(c2nc(-c3ccc(I)cc3)cs2)CC1 [Compound 250]	86	58	0	
Cc1cc(C(F)(F)F)nn1CC(=O)N1CCC(c2nc(C3=NOC4(CCCc5cc(C#N)ccc54)C3)cs2)CC1 (centres unmarked) [Compound 251]	99	100	99	
Cc1cc(C(F)(F)F)nn1CC(=O)N1CCC(c2nc(C3=NOC4(CC(=O)N(c5ccccc5)C4=O)C3)cs2)CC1 (centres unmarked) [Compound 252]	88	91	97	

Compound	Percent Disease Control, Test A ([1]; * tested at 40 ppm) [%]	Percent Disease Control, Test B ([2]; * tested at 40 ppm) [%]	Percent Disease Control, Test C ([3]; * tested at 40 ppm) [%]	also measured
C[C@]1(c2ccccc2)CC(c2csc(C3CCN(C(=O)Cn4nc(C(F)(F)F)cc4C(F)(F)F)CC3)n2)=NO1 [Compound 260, 2-[3,5-bis(triflyoromethyl)-1H-pyrazol-1-yl]-1-[4-[4-[(5R)-4,5-dihydro-5-methyl-5-phenyl-3-isoxazolyl]-2-thiazolyl]-1-piperidinyl]ethanone]				Percent Disease Control, Test A ([1]; ** tested at l0 ppm): 100%; Percent Disease Control, Test B ([2]; ** tested at l0 ppm): 100%; Percent Disease Control, Test C ([3]; ** tested at l0 ppm): 96%
Cc1cc(C(F)(F)F)nn1CC(=O)N1CCC(c2nc(C3=NOC(Cc4ccccc4S(N)(=O)=O)C3)cs2)CC1 (centres unmarked) [Compound 262]	79	100	91	
CC(=O)Oc1ccccc1C1CC(c2csc(C3CCN(C(=O)Cn4nc(C(F)(F)F)cc4C)CC3)n2)=NO1 (centres unmarked) [Compound 263]	99	84	83	
Cc1cc(C(F)(F)F)nn1CC(=O)N1CCC(c2nc(C3=NOC(N(C)C(=O)c4ccccc4)C3)cs2)CC1 (centres unmarked) [Compound 264]	99	100	88	
Cc1cc(C(F)(F)F)nn1CC(=O)N1CCC(c2nc(C3=NOC4(CC(=O)N(C)C4=O)C3)cs2)CC1 (centres unmarked) [Compound 267]				Percent Disease Control, Test A [1, 4]: 100%; Percent Disease Control, Test B [2, 4]: 100%; Percent Disease Control, Test C [3, 4]: 100%
CCc1ccc(-c2csc(C3CCN(C(=O)Cn4nc(C(F)(F)F)cc4C)CC3)n2)cc1 [Compound 268]				Percent Disease Control, Test A [1, 4]: 100%; Percent Disease Control, Test B [2, 4]: 100%; Percent Disease Control, Test C [3, 4]: 88%
Cc1cc(C(F)(F)F)nn1CC(=O)N1CCC(c2nc(-c3ccc(OC(F)(F)F)cc3)cs2)CC1 [Compound 269]				Percent Disease Control, Test A [1, 4]: 100%; Percent Disease Control, Test B [2, 4]: 100%; Percent Disease Control, Test C [3, 4]: 0%
COC(=O)c1ccc(-c2csc(C3CCN(C(=O)Cn4nc(C(F)(F)F)cc4C)CC3)n2)cc1 [Compound 270]				Percent Disease Control, Test A [1, 4]: 99%; Percent Disease Control, Test B [2, 4]: 83%; Percent Disease Control, Test C [3, 4]: 0%
CCCc1ccc(-c2csc(C3CCN(C(=O)Cn4nc(C(F)(F)F)cc4C)CC3)n2)cc1 [Compound 271]				Percent Disease Control, Test A [1, 4]: 100%; Percent Disease Control, Test B [2, 4]: 100%; Percent Disease Control, Test C [3, 4]: 72%
CSc1ccc(-c2csc(C3CCN(C(=O)Cn4nc(C(F)(F)F)cc4C)CC3)n2)cc1 [Compound 272]				Percent Disease Control, Test A [1, 4]: 100%; Percent Disease Control, Test B [2, 4]: 100%; Percent Disease Control, Test C [3, 4]: 100%
Cc1cc(C(F)(F)F)nn1CC(=O)N1CCC(c2nc(-c3ccc(C(C)C)cc3)cs2)CC1 [Compound 273]				Percent Disease Control, Test A [1, 4]: 100%; Percent Disease Control, Test B [2, 4]: 100%; Percent Disease Control, Test C [3, 4]: 90%
Cc1cc(C(F)(F)F)nn1CC(=O)N1CCC(c2nc(-c3ccc(CC(C)C)cc3)cs2)CC1 [Compound 274]				Percent Disease Control, Test A [1, 4]: 99%; Percent Disease Control, Test B [2, 4]: 100%; Percent Disease Control, Test C [3, 4]: 100%
Cc1cc(C(F)(F)F)nn1CC(=O)N1CCC(c2nc(C3=NOC(n4c(=O)n(C)c5ccccc54)C3)cs2)CC1 (centres unmarked) [Compound 275]				Percent Disease Control, Test A ([1]; ** tested at l0 ppm): 99%; Percent Disease Control, Test B ([2]; ** tested at l0 ppm): 100%; Percent Disease Control, Test C ([3]; ** tested at l0 ppm): 98%
Cc1cc(C(F)(F)F)nn1CC(=O)N1CCC(c2nc(C3=NOC(CN4C(=O)c5ccccc5C4=O)C3)cs2)CC1 (centres unmarked) [Compound 278]	94	100	99	
Cc1cc(C(F)(F)F)nn1CC(=O)N1CCC(c2nc(C3=NOC(N4C(=O)N(C)C(=O)C(C)(C)C4=O)C3)cs2)CC1 (centres unmarked) [Compound 279]	100	100	99	
Cc1cc(C(F)(F)F)nn1CC(=O)N1CCC(c2nc(C3=NOC(n4c(=O)sc5ccc(Cl)cc54)C3)cs2)CC1 (centres unmarked) [Compound 280]				Percent Disease Control, Test A ([1]; ** tested at l0 ppm): 92%; Percent Disease Control, Test B ([2]; ** tested at l0 ppm): 100%; Percent Disease Control, Test C ([3]; ** tested at l0 ppm): 98%
